# Measured values from US7153869B2, “Substituted amino acids as erythropoietin mimetics” (priority 1998, dated 2006).
# Like-named read-outs stand apart in the source and are kept apart here.
# Molecular target: T1, EBP-Ig (N-terminal 225 amino acids of the human EPO receptor joined to an Ig heavy chain) (Homo sapiens, UniProt P19235)
# T1 construct: Ig heavy chain (fusion partner); made in house; host or cells: NSO cells (secreted into conditioned media)
# T1 sequence (P19235 25-250 limits assumed): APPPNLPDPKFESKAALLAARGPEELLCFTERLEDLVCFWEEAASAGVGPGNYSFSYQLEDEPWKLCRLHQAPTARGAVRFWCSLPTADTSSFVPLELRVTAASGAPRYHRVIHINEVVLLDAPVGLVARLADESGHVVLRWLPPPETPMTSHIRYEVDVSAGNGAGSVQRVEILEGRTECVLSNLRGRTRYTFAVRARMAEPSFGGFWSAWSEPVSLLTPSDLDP
# Assay: Inhibition of [125I]EPO binding to immobilized EBP-Ig (EPO binding protein-Ig), scintillation Flash plate competition assay
# Settings: for IC30 μM (Inhibition of EPO binding to EBP-Ig) / % inh @ 50 μM (Inhibition of EPO binding to EBP-Ig) / IC50: 0.5 nM [125I]EPO; for IC30 μM (Inhibition of EPO binding to EBP-Ig): 0–500 μM test compound; for % inh @ 50 μM (Inhibition of EPO binding to EBP-Ig): 50 μM test compound, average % inhibition; for IC50: read-out: IC50, μM (Inhibition of EPO binding to EBP-Ig), concentration reducing corrected total binding to 50%
# From the text: The interaction of biotin and streptavidin is frequently employed to capture and effectively immobilize reagents useful in assay protocols and has been employed here as a simple method to capture and immobilize EBP-Ig. EBP-Ig is initially randomly modified with an amine reactive derivative of biotin to produce biotinylated-EBP-Ig. Use of streptavidin coated plates allows the capture of the biotinylated EBP-Ig on the surface of a scintillant impregnated coated well (Flash plates, NEN-DuPont). […] The amount of light produced was quantified to estimate the amount of ligand binding. The specific assay format was suitable for the multi-well plate capacity of a Packard TopCount Microplate Scintillation counter.
# Biotinylated EBP-Ig was prepared as follows. EBP-Ig (3 mL, OD280 2.9) was exchanged into 50 mM sodium bicarbonate, pH 8.5 using a Centriprep 10 ultrafiltration device. The final volume of the exchanged protein was 1.2 mL (OD280 2.6, representing about 2 mg total protein). 10 μL of a 4 mg/ml solution of NHS-LC-Biotin (Pierce) was added and the reaction mixture placed on ice in the dark for two hours. Unreacted biotin was removed by exchange of the reaction buffer into PBS in a Centriprep 10 device and the protein reagent aliquoted and stored at −70° C.
# All wells were adjusted to a final DMSO concentration of 5%. […] After all additions were made, the plate was covered with an adhesive top seal and placed in the dark at room temperature overnight. The next day all liquid was aspirated from the wells to limit analyte dependent quench of the signal, and the plates were counted on a Packard TOPCOUNT Microplate Scintillation Counter. […] Corrected total binding (CTB) was calculated as: TB−NSB=CTB. […] Table 1 lists the average % inhibition, and if determined the IC50 and IC30 values for compounds of Formula I, where the compound numbers refer to the compounds in the tables accompanying the preparative examples.
# [1] = read-out: % inh @ 50 μM (Inhibition of EPO binding to EBP-Ig)
smiles,measurement,setting,value
"O=C(O)C(CO)NCC=Cc1cccc(Oc2ccccc2)c1 (centres unmarked) [cpd 347, N-(3-phenoxycinnamyl)Ser-OH]",EPO/EBP-Ig % inh @ 50 μM,"50 μM compound, Table 20A",23%
COc1ccc(CCNC(=O)C(CCCCNC(=O)Nc2ccc(Oc3ccccc3)cc2)N(C/C=C/c2cccc(Oc3ccccc3)c2)C/C=C/c2cccc(Oc3ccccc3)c2)cc1 (centres unmarked) [compound 232],EPO/EBP-Ig % inh @ 50 μM,"50 μM compound, Table 10",14%
"COC(=O)C(CCCCNC(=O)OC(C)(C)C)N(Cc1ccc(OCc2ccccc2)cc1)Cc1ccc(OCc2ccccc2)cc1 (centres unmarked) [cpd 111, N,N-bis(4-Benzyloxybenzyl)Lys(Boc)-OMe]",EPO/EBP-Ig % inh @ 50 μM,"Table 7, 50 μM",5%
CCOC(=O)CCC(C(=O)OC)N(C/C=C/c1ccccc1)C/C=C/c1ccccc1 (centres unmarked) [compound 94],EPO/EBP-Ig % inh @ 50 μM,"Table 6, 50 μM",25%
CC(C)(C)c1ccc(Oc2cccc(/C=C/CN(C/C=C/c3cccc(Oc4ccc(C(C)(C)C)cc4)c3)C(CCC(=O)O)C(=O)O)c2)cc1 (centres unmarked) [compound 104],IC30 μM (Inhibition of EPO binding to EBP-Ig),,10 µM
same,% inh @ 50 μM (Inhibition of EPO binding to EBP-Ig),,78%
same,EPO/EBP-Ig % inh @ 50 μM,"Table 6, 50 μM",78%
same,IC50,,30 µM
O=C(O)C(CO)N(CC=Cc1ccc(-c2ccccc2)cc1)CC=Cc1ccc(-c2ccccc2)cc1 (centres unmarked) [compound 305],IC30 μM (Inhibition of EPO binding to EBP-Ig),,35 µM
same,inhibition at 50 µM,[1],48%
same,inhibition at 50 µM,"read-out: EPO/EBP-Ig % inh @ 50 μM, 50 μM compound, Table 16A",48%
same,IC50,,225 µM
CC(C)(C)OC(=O)NCCCCC(C(=O)NCCOCCOCCNC(=O)C(CCCCNC(=O)OC(C)(C)C)N(Cc1ccc(OCc2ccccc2)cc1)Cc1ccc(OCc2ccccc2)cc1)N(Cc1ccc(OCc2ccccc2)cc1)Cc1ccc(OCc2ccccc2)cc1 (centres unmarked) [compound 260],EPO/EBP-Ig % inh @ 50 μM,"50 μM compound, Table 13",−12%
O=C(O)CCC(C(=O)O)N(C/C=C/c1ccc(NC(=O)c2ccc([N+](=O)[O-])cc2)cc1)Cc1ccc(OCc2ccccc2)cc1 (centres unmarked) [compound 91],EPO/EBP-Ig % inh @ 50 μM,"Table 5, 50 μM",19%
CC(C)(C)OC(=O)CC[C@H](NC/C=C/c1ccc(-c2ccccc2)cc1)C(=O)O [compound 340],EPO/EBP-Ig % inh @ 50 μM,"50 μM compound, Table 19A",14%
CC(C)(C)OC(=O)C(CCCCNC(=O)OCc1ccccc1)N(C/C=C/c1ccccc1)C/C=C/c1ccccc1 (centres unmarked) [compound 173],EPO/EBP-Ig % inh @ 50 μM,"50 μM compound, Table 9",5%
CC(C)(C)c1ccc(Oc2cccc(/C=C/C(=O)N(Cc3cccc(Oc4ccccc4)c3)C(CCCCN)C(=O)O)c2)cc1 (centres unmarked) [compound 288],EPO/EBP-Ig % inh @ 50 μM,"50 μM compound, Table 15",27%
O=C(NCCCCC(C(=O)OCc1ccccc1)N(CC=Cc1cccs1)CC=Cc1cccs1)OCc1ccccc1 (centres unmarked) [compound 57],EPO/EBP-Ig % inh @ 50 μM,"Table 3, 50 μM",0%
COC(=O)[C@H](CCC(=O)OC(C)(C)C)NC/C=C/c1ccc2ccccc2c1 [compound 333],EPO/EBP-Ig % inh @ 50 μM,"50 μM compound, Table 19A",16%
O=C(O)CC(C(=O)O)N(Cc1cccc(NCc2ccccc2F)c1)Cc1cccc(Oc2ccccc2)c1 (centres unmarked) [compound 68],EPO/EBP-Ig % inh @ 50 μM,"Table 4, 50 μM",−13%
O=C(O)CCC(C(=O)O)N(C/C=C/c1ccc(NC(=O)Oc2ccccc2)cc1)Cc1ccc(OCc2ccccc2)cc1 (centres unmarked) [compound 89],EPO/EBP-Ig % inh @ 50 μM,"Table 5, 50 μM",22%
CC(C)(C)OC(=O)NCCCCC(C(=O)NCCCCCCCCCCCCNC(=O)C(CCCCNC(=O)OC(C)(C)C)N(Cc1ccc(OCc2ccccc2)cc1)Cc1ccc(OCc2ccccc2)cc1)N(Cc1ccc(OCc2ccccc2)cc1)Cc1ccc(OCc2ccccc2)cc1 (centres unmarked) [compound 259],EPO/EBP-Ig % inh @ 50 μM,"50 μM compound, Table 13",−13%
CC(C)(C)c1ccc(Oc2cccc(/C=C/CN[C@@H](CO)C(=O)O)c2)cc1.O=C(O)C(F)(F)F [compound 351],EPO/EBP-Ig % inh @ 50 μM,"50 μM compound, Table 20A",29%
O=C(O)CCC(C(=O)O)N(C/C=C/c1ccc(NC(=O)CC2(CC(=O)O)CCCC2)cc1)Cc1ccc(OCc2ccccc2)cc1 (centres unmarked) [compound 88],EPO/EBP-Ig % inh @ 50 μM,"Table 5, 50 μM",10.3%
CC(=O)O.COC(=O)[C@H](CO)N(C/C=C/c1cccc(Oc2ccc(Cl)c(Cl)c2)c1)C/C=C/c1cccc(Oc2ccc(Cl)c(Cl)c2)c1 [compound 296],EPO/EBP-Ig % inh @ 50 μM,"50 μM compound, Table 16A",0%
COC(=O)C(CCC(=O)O)N(C/C=C/c1cccs1)C/C=C/c1cccs1 (centres unmarked) [compound 61],EPO/EBP-Ig % inh @ 50 μM,"Table 3, 50 μM",14%
COc1ccc(CCNC(=O)C(CCCCN)N(C/C=C/c2ccc(-c3ccccc3)cc2)C/C=C/c2ccc(-c3ccccc3)cc2)cc1 (centres unmarked) [compound 238],EPO/EBP-Ig % inh @ 50 μM,"50 μM compound, Table 10",39%
same,% inh @ 50 μM (Inhibition of EPO binding to EBP-Ig),,39%
CC(C(=O)O)N(CC=Cc1cccs1)CC=Cc1cccs1 (centres unmarked) [compound 54],EPO/EBP-Ig % inh @ 50 μM,"Table 3, 50 μM",18%
COC(=O)[C@H](CCCCNC(=O)OCc1ccccc1)NC/C=C/c1ccccc1 [compound 318],EPO/EBP-Ig % inh @ 50 μM,"50 μM compound, Table 18A",14%
CC(C)(C)OC(=O)CC(C(=O)OC(C)(C)C)N(C/C=C/c1cccc(Oc2ccccc2)c1)Cc1cccc(Oc2ccccc2)c1 (centres unmarked) [compound 76],EPO/EBP-Ig % inh @ 50 μM,"Table 5, 50 μM",25%
COC(=O)C(CCCCN)N(Cc1ccc(OCc2ccccc2)cc1)Cc1ccc(OCc2ccccc2)cc1 (centres unmarked) [compound 110],IC30 μM (Inhibition of EPO binding to EBP-Ig),,6 µM
same,inhibition at 50 µM,[1],54%
same,inhibition at 50 µM,"read-out: EPO/EBP-Ig % inh @ 50 μM, Table 7, 50 μM",54%
COC(=O)[C@H](CCC(=O)OC(C)(C)C)NC/C=C/c1cccc(Oc2ccc(Cl)c(Cl)c2)c1 [compound 336],EPO/EBP-Ig % inh @ 50 μM,"50 μM compound, Table 19A",32%
CC(C)(C)OC[C@H](NC/C=C/c1cccc(Oc2cccc(C(F)(F)F)c2)c1)C(=O)O [compound 357],EPO/EBP-Ig % inh @ 50 μM,"50 μM compound, Table 20A",12%
Cc1ccc(Oc2cccc(CN(Cc3cccc(NCc4cccc(C#N)c4)c3)C(CC(=O)O)C(=O)O)c2)cc1 (centres unmarked) [compound 74],EPO/EBP-Ig % inh @ 50 μM,"Table 4, 50 μM",−7%
COC(=O)[C@H](COC(C)(C)C)NC/C=C/c1cccc(Oc2ccc(Cl)c(Cl)c2)c1 [compound 354],EPO/EBP-Ig % inh @ 50 μM,"50 μM compound, Table 20A",31%
O=C(O)C(F)(F)F.O=C(O)[C@H](CO)NC/C=C/c1cccc(Oc2ccc(Cl)c(Cl)c2)c1 [compound 349],EPO/EBP-Ig % inh @ 50 μM,"50 μM compound, Table 20A",23%
CC(C)(C)OC(=O)NCCCCC(C(=O)O)N(C/C=C/c1ccc([N+](=O)[O-])cc1)C/C=C/c1ccc([N+](=O)[O-])cc1 (centres unmarked) [compound 179],EPO/EBP-Ig % inh @ 50 μM,"50 μM compound, Table 9",30%
same,% inh @ 50 μM (Inhibition of EPO binding to EBP-Ig),,30%
Cc1ccc(C(=O)Nc2cccc(CN(Cc3cccc(Oc4ccccc4)c3)C(CCC(=O)O)C(=O)NCCOCCOCCNC(=O)C(CCC(=O)O)N(Cc3cccc(NC(=O)c4ccc(C)cc4)c3)Cc3cccc(Oc4ccccc4)c3)c2)cc1 (centres unmarked) [compound 249],IC30 μM (Inhibition of EPO binding to EBP-Ig),,7 µM
same,% inh @ 50 μM (Inhibition of EPO binding to EBP-Ig),,72%
same,EPO/EBP-Ig % inh @ 50 μM,"Table 11, 50 μM",72%
same,IC50,,10 µM
O=C(O)CCC(C(=O)O)N(C/C=C/c1ccc(NC(=O)C(F)(F)F)cc1)Cc1ccc(OCc2ccccc2)cc1 (centres unmarked) [compound 85],EPO/EBP-Ig % inh @ 50 μM,"Table 5, 50 μM",20%
COC(=O)[C@H](CCC(=O)OC(C)(C)C)NC/C=C/c1ccc(-c2ccccc2)cc1 [compound 335],EPO/EBP-Ig % inh @ 50 μM,"50 μM compound, Table 19A",25%
O=C(NCCCC[C@H](NC/C=C/c1ccc(C(F)(F)F)cc1)C(=O)O)OCc1ccccc1Cl.O=C(O)C(F)(F)F [compound 313],EPO/EBP-Ig % inh @ 50 μM,"50 μM compound, Table 18A",28%
O=C(O)CCC(C(=O)O)N(CC=Cc1cccs1)CC=Cc1cccs1 (centres unmarked) [compound 52],EPO/EBP-Ig % inh @ 50 μM,"Table 3, 50 μM",21%
"COC(=O)[C@H](CO)NCC=Cc1cccc(Oc2ccccc2)c1 [cpd 346, N-(3-Phenoxycinnamyl)Ser-OMe]",EPO/EBP-Ig % inh @ 50 μM,"50 μM compound, Table 20A",28%
CC(C)(C)OC(=O)CCC(C(=O)OC(C)(C)C)N(C/C=C/c1cccc(Oc2ccc(C(C)(C)C)cc2)c1)C/C=C/c1cccc(Oc2ccc(C(C)(C)C)cc2)c1 (centres unmarked) [compound 102],EPO/EBP-Ig % inh @ 50 μM,"Table 6, 50 μM",5%
COC(=O)[C@H](Cc1ccccc1)NC/C=C/c1ccccc1 [compound 360],EPO/EBP-Ig % inh @ 50 μM,50 μM compound,18%
C[C@H](O)[C@H](NC/C=C/c1ccc(C(F)(F)F)cc1)C(=O)O.O=C(O)C(F)(F)F [compound 358],EPO/EBP-Ig % inh @ 50 μM,50 μM compound,0%
